Assay [1] has as its target Serine/threonine-protein kinase PLK3 (Homo sapiens) (UniProt Q9H4B4). Put plainly: Inhibition of human recombinant PLK3 at 15 nM related to control ULK1.
Assay [2] addresses Cyclin-dependent kinase 2 (Homo sapiens) (UniProt P24941). The experiment in a line: Inhibition of human recombinant CDK2 at 40 nM related to control ULK1.
Assay [3] addresses Mitogen-activated protein kinase 10 (Homo sapiens) (UniProt P53779). Put plainly: Inhibition of human recombinant JNK3 at 40 nM related to control ULK1.
Assay [4] deals with Tyrosine-protein kinase CSK (Homo sapiens) (UniProt P41240). The experiment in a line: Inhibition of human recombinant CSK at 500 nM in presence of ATP by radiometric assay relative to control.
Chain of Tyrosine-protein kinase CSK (Homo sapiens) (P41240 2-450 limits assumed): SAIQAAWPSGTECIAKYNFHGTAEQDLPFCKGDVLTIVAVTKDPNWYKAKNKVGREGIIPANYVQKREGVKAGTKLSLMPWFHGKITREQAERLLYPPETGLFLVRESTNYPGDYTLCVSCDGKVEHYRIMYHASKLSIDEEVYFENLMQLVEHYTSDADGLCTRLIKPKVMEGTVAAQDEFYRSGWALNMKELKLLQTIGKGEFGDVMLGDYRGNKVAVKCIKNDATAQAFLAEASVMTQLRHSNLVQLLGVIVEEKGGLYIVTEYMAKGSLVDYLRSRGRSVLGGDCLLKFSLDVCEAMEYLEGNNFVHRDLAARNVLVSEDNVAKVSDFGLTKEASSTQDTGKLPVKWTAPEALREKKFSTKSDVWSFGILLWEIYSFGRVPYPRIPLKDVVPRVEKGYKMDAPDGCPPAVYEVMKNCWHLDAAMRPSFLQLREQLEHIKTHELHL
For assay [5], the target named is T1, Homeodomain-interacting protein kinase 4 (Homo sapiens) (UniProt Q8NE63).
T1 sequence (whole entry): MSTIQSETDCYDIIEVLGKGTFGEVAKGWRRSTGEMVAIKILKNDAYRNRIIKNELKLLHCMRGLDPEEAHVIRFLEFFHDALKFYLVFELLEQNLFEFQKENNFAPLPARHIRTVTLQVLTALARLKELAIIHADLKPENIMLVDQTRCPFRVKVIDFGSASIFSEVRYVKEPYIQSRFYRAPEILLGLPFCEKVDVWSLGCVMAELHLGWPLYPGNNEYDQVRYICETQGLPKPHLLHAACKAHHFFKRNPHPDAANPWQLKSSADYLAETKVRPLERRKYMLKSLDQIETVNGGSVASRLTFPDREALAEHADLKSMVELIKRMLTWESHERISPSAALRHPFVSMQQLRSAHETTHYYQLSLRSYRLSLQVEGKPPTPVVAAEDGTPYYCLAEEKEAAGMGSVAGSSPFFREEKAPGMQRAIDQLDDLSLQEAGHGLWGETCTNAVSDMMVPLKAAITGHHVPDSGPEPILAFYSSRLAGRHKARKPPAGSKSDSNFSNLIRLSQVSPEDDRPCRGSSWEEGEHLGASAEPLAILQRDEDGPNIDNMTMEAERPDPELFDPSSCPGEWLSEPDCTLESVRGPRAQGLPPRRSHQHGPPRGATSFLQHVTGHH
The experiment in a line: Inhibition of human recombinant HIPK4 at 500 nM in presence of ATP by radiometric assay relative to control.

The target of assay [6] is T2, Inhibitor of nuclear factor kappa-B kinase subunit alpha (Homo sapiens) (UniProt O15111).
T2 sequence (whole entry): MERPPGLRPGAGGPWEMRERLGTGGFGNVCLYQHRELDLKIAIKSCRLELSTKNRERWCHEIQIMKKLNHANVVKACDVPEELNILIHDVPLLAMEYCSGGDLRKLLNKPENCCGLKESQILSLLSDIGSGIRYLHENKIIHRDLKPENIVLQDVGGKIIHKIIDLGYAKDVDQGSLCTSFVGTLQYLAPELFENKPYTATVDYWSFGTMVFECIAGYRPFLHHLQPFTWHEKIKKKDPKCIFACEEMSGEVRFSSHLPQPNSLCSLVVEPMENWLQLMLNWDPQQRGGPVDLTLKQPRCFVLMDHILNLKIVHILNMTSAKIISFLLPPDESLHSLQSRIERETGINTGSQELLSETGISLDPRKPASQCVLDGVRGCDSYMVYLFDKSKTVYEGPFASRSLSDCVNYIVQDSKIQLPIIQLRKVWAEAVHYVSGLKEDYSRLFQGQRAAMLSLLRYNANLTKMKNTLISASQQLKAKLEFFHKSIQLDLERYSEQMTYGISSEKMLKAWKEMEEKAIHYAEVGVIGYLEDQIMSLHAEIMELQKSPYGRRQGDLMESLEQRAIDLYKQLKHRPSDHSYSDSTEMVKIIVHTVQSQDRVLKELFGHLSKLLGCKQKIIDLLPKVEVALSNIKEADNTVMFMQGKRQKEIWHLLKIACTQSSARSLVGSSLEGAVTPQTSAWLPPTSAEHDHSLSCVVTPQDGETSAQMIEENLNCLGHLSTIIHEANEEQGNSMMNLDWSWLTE
The experiment in a line: Inhibition of human recombinant IKKa at 500 nM in presence of ATP by radiometric assay relative to control.

Assay [7] addresses Serine/threonine-protein kinase PAK 5 (Homo sapiens) (UniProt Q9P286). The experiment in a line: Inhibition of human recombinant PAK5 at 500 nM in presence of ATP by radiometric assay relative to control.
Assay [8] deals with Serine/threonine-protein kinase SIK2 (Homo sapiens) (UniProt Q9H0K1). The experiment in a line: Inhibition of human recombinant QIK at 500 nM related to control ULK1.
Chain of Serine/threonine-protein kinase SIK2 (Homo sapiens) (Q9H0K1 whole entry, looked up): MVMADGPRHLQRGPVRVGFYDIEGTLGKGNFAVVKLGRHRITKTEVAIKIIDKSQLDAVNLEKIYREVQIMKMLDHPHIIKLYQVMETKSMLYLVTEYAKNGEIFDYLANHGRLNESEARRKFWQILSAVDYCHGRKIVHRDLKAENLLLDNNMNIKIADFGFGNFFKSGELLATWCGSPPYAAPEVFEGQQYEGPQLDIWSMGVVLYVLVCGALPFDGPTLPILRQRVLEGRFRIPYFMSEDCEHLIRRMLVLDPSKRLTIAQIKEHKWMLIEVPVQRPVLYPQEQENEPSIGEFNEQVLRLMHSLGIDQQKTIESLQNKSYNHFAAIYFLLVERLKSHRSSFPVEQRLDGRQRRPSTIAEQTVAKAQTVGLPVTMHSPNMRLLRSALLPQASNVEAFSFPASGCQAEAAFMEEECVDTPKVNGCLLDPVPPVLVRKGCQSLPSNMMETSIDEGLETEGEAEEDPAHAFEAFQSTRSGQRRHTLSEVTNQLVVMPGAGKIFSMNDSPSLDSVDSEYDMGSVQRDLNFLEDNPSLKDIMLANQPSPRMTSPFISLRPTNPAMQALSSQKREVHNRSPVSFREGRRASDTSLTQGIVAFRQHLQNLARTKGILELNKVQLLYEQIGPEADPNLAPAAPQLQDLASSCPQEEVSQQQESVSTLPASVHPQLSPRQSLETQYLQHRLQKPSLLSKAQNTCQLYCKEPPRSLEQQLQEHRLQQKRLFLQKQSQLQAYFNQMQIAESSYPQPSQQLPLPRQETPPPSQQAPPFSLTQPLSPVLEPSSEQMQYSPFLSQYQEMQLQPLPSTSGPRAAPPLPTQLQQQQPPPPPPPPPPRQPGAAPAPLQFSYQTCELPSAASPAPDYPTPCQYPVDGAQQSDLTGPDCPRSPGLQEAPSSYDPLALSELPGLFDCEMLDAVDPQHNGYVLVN
Assay [9] concerns the target Serine/threonine-protein kinase SIK1 (Homo sapiens) (UniProt P57059). The experiment in a line: Inhibition of human recombinant SIK at 500 nM related to control ULK1.

Chain of Mitogen-activated protein kinase 10 (Homo sapiens) (P53779 whole entry): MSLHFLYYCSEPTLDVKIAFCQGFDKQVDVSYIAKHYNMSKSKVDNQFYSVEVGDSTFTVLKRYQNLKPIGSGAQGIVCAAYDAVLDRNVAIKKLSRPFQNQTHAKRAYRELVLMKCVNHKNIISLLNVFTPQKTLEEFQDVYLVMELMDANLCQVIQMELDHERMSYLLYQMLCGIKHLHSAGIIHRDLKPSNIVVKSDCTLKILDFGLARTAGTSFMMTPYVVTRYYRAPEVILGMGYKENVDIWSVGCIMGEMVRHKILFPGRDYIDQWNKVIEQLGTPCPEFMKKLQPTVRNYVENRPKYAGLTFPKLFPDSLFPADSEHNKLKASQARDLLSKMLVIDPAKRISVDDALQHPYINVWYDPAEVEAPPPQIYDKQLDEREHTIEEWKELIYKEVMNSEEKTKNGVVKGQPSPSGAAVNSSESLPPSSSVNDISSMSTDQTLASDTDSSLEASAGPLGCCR
Chain of Serine/threonine-protein kinase PLK3 (Homo sapiens) (Q9H4B4 whole entry, looked up): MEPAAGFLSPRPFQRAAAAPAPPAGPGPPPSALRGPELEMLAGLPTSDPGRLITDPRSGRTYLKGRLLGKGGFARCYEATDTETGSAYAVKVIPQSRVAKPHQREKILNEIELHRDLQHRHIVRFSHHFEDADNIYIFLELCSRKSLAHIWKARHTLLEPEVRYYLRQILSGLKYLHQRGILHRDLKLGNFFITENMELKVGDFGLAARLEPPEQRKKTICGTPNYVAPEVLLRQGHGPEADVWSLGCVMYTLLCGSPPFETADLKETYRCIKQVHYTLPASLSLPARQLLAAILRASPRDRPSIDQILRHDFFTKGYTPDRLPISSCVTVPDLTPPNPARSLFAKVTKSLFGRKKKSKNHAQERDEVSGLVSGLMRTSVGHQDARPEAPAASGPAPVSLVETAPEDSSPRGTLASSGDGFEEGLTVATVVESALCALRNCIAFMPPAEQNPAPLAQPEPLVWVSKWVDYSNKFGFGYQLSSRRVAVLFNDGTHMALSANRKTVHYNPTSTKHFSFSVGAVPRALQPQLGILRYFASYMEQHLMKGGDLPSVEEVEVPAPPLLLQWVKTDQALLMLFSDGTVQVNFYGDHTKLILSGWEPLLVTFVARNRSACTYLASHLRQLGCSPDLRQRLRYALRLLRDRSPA
Chain of Serine/threonine-protein kinase SIK1 (Homo sapiens) (P57059 whole entry): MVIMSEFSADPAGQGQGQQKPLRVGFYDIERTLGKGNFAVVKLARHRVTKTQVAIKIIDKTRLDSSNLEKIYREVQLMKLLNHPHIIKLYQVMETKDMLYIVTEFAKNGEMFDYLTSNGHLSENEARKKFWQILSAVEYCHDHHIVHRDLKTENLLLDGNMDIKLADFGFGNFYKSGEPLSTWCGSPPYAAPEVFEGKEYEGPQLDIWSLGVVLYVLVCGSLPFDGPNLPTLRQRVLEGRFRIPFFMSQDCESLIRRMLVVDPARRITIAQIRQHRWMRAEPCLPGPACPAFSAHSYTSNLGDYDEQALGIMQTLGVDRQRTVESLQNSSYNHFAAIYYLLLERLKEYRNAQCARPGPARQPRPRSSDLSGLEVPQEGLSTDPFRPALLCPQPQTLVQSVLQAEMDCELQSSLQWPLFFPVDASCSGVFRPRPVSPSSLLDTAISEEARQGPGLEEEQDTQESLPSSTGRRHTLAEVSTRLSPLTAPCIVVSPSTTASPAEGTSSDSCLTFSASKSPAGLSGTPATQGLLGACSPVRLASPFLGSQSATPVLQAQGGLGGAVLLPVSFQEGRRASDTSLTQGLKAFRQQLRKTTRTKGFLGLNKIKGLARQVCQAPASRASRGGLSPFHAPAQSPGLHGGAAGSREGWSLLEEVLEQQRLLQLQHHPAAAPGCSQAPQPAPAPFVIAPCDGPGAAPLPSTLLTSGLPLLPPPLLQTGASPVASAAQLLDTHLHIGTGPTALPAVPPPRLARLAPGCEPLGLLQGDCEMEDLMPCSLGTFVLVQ
Chain of Serine/threonine-protein kinase PAK 5 (Homo sapiens) (Q9P286 whole entry, looked up): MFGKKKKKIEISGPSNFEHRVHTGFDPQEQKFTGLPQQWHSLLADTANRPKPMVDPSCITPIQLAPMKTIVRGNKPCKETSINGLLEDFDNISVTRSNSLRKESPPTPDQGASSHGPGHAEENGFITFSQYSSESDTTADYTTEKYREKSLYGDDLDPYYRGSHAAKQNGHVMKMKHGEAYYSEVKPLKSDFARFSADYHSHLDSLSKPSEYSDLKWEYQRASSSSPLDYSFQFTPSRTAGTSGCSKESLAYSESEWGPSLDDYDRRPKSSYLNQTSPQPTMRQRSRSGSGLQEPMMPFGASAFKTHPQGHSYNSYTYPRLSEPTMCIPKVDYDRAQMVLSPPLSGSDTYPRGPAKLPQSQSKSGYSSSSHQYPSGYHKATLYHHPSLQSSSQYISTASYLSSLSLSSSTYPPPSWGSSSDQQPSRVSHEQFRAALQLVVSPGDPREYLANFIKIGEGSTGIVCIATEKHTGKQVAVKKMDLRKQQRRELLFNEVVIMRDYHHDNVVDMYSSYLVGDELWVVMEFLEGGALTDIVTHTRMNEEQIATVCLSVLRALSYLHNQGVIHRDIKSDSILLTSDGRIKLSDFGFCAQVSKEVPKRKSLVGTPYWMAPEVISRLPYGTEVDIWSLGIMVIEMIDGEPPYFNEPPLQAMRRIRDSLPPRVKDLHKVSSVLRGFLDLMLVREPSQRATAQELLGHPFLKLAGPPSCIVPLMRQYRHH

Take `CC(C)[C@H](NC(=O)c1cc(-c2cnn3cc(-c4ccc(OCCN5CCCCC5)cc4)cnc23)cs1)C(F)(F)F`: in [1], the fold change (FC) was 0.03.
Consider `O=C(N[C@@H](C1CC1)C(F)(F)F)c1cc(-c2cnn3cc(-c4ccc(F)cc4)cnc23)cs1`, for which the fold change (FC) in assay [2] is 0.4; in assay [3] it was 0.
Regarding `CNC(=O)c1ccccc1Oc1nc(Nc2cc(OC)c(OC)c(OC)c2)ncc1Br`, the inhibition in [4] was 2%; in assay [5], 9%; in [6] it was 2%; in assay [7], 5%. The fold change (FC) in assay [8] stood at 0; in [9], 0.27.

The term inhibition denotes the change of the read-out against control, counted positive when it falls.

Source of the values: ChEMBL document CHEMBL5653631, “A Potent and Selective ULK1 Inhibitor Suppresses Autophagy and Sensitizes Cancer Cells to Nutrient Stress” (iScience, 2018).
